# Data taken from ChEMBL document CHEMBL1133576, “Structural basis of the thrombin selectivity of a ligand that contains the constrained arginine mimic (2S)-2-amino-(3S)-3-(1-carbamimidoyl- piperidin-3-yl)-propanoic acid at P1” (J Med Chem, 2000).
# Experiments:
# [1] = target: Prothrombin (Homo sapiens, UniProt P00734); experiment: Inhibitory activity towards Thrombin
# [2] = target: Serine protease 1 (Homo sapiens, UniProt P07477); experiment: Inhibitory activity towards Trypsin
# Chain of Serine protease 1 (P07477 whole entry): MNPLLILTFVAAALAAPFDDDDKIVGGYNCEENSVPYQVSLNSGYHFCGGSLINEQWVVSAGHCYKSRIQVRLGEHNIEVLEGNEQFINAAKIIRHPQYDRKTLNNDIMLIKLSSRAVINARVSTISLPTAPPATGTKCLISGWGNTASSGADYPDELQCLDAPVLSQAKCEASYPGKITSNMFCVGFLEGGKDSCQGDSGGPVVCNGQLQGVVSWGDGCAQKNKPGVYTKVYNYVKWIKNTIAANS
compound,measurement,setting,value
N=C(N)NCCC[C@H](NC(=O)[C@@H]1CC[C@H]2CN(C(=O)CCc3ccccc3)CC(=O)N21)C(=O)c1nccs1,Ki,[1],0.6 nM
same,IC50,[2],1 nM
N=C(N)N1CCCC(C[C@H](NC(=O)[C@@H]2CC[C@H]3CN(C(=O)CCc4ccccc4)CC(=O)N32)C(=O)c2nccs2)C1 (some centres undefined),Ki,[1],3.5 nM
same,Ki,[2],4000 nM
